# Measurements published in patent EP0252380B1, “Antibiotic LL-E19020 alpha and beta” (AMERICAN CYANAMID COMPANY, priority 1986, dated 1988).
# Marks after values point to notes of the source that are not given here.
# Assays:
# Enterococcus = experiment: In vitro antibacterial activity, standard agar dilution method (Table II); assay type: cell-based
# Treponema hyodysenteriae = experiment: Minimum inhibitory concentration by microdilution (Table VII); assay type: cell-based
# [1] = Growth of chickens and efficiency of feed utilization (Example 5, Table VIII); assay type: in vivo, Peterson X Arbor Acres chicks; conditions: for Feed/Gain 0-1 Wk: control 1.21; for Feed/Gain 0-2 Wk: control 1.33; for Feed/Gain 0-3 Wk: control 1.43
# Protocol: In this test one day old Peterson X Arbor Acres chicks are sorted into equal weight groups of 5 males and 5 females per cage. Cages are randomized to treatment groups with six replicates per treatment. Each compound is tested at 50 and 100 ppm in the diet and evaluated against chicks receiving a non-medicated diet.
# The chicks are weighed at the start of the test and at 1 week intervals thereafter to the conclusion of said test. The chicks are given free access to feed and water during the entire test period. The feed is weighed when provided to the chicks and excess feed collected and weighed when the cages are cleaned.
# The poultry diet employed in the test is as follows: Vitamin-amino acid premix 0.5% Trace minerals 0.1% Sodium chloride 0.3% Dicalcium phosphate 1.2% Ground limestone 0.5% Stabilized fat 4.0% Dehydrated alfalfa, 17% protein 2.0% Corn gluten meal, 41% protein 5.0% Menhaden fish meal, 60% protein 5.0% Soybean oil meal, 44% protein 30.0% Ground yellow corn, fine to 100.0%
# The vitamin-amino acid premix in the above feed composition is prepared from the following formulation. The expressions of quantity relate to units per kilogram of the finished feed compositions. Butylated hydroxy toluene 125.0 mg d1-Methionine 500.0 mg Vitamin A 3300.0 I.U. Vitamin D₃ 1100.0 I.C.U. Riboflavin 4.4 mg Vitamin E 2.2 I.U. Niacin 27.5 mg Panthothenic acid 8.8 mg Choline chloride 500.0 mg Folic acid 1.43 mg Menadione sodium bisulfate 1.1 mg Vitamin B₁₂ 11.0 mcg Ground yellow corn, fine to […]
# Peptococcus magnus = experiment: In vitro antibacterial activity, standard agar dilution method (Table II); assay type: cell-based
# Enterobacter cloacae = experiment: as above; assay type: cell-based; conditions: strain VGH-84-37
# [2] = tested on: Mycoplasma gallisepticum "R"; experiment: Minimum inhibitory concentration assay for Mycoplasma gallisepticum (microdilution, Table VII); conditions: microdilution; "R" strain
# Escherichia coli [3] = experiment: Minimum inhibitory concentration by agar dilution (Table VI); assay type: cell-based; conditions: 2 strains tested
# Morganella morganii = experiment: In vitro antibacterial activity, standard agar dilution method (Table II); assay type: cell-based; conditions: strain VGH-84-71
# [4] = tested on: Streptococcus pyogenes C203; experiment: In vivo antibacterial activity in infected mice (Table III); conditions: S. pyogenes C203, 30 minutes before infection
# Serratia marcescens = experiment: In vitro antibacterial activity, standard agar dilution method (Table II); assay type: cell-based; conditions: strain K-84-18
# [5] = tested on: Staphylococcus epidermidis; experiment: as above; assay type: cell-based; conditions: strain IO-83-58
# Clostridium perfringens = assay type: cell-based; conditions: strain ATCC 13124
# [6] = Weight gain and feed efficiency of broiler chicks (Example 6, Table IX); assay type: in vivo, Peterson X Arbor Acres chicks; conditions: for Wg Gains And Feed Efficiency % Improvement Over Controls FEED/GAIN: control 1.41
# [7] = tested on: Bordetella bronchiseptica; experiment: Minimum inhibitory concentration by agar dilution (Table VI); assay type: cell-based; conditions: 4 strains tested
# [8] = tested on: Trichostrongylus colubriformis; experiment: Trichostrongylus colubriformis/gerbil anthelmintic evaluation; assay type: in vivo, Gerbils
# Protocol: Gerbils are infected with 400 infective larvae of the sheep parasite, T. colubriformis on a day 0. On day 7 gerbils are divided into test and untreated control groups of 2-3 animals. Drug is administered in the feed and are fed from day 7-11. Drugs may also be given by gavage (single oral dose) or injected subcutaneously. Single doses are usually administered on day 7. Gerbils are killed on day 11 and small intestines removed. The number of T. colubriformis remaining in the intestines of treated animals are counted and compared to the number remaining in the untreated controls.
# Clostridium difficile = experiment: In vitro antibacterial activity, standard agar dilution method (Table II); assay type: cell-based; conditions: strain ATCC 17858
# Salmonella choleraesuis = experiment: Minimum inhibitory concentration by agar dilution (Table VI); assay type: cell-based; conditions: 2 strains tested
# Pasteurella haemolytica = experiment: as above; assay type: cell-based; conditions: 3 strains tested
# Bacteroides fragilis = experiment: In vitro antibacterial activity, standard agar dilution method (Table II); assay type: cell-based; conditions: strain NYC 77-1
# Pseudomonas aeruginosa = experiment: as above; assay type: cell-based; conditions: strain 12-4-4
# Streptococcus pneumoniae = experiment: as above; assay type: cell-based
# Escherichia coli [9] = experiment: as above; assay type: cell-based; conditions: strain 311
# Pasteurella multocida = experiment: Minimum inhibitory concentration by agar dilution (Table VI); assay type: cell-based; conditions: 6 strains tested
compound,measurement,setting,value
C/C=C\C=C\[C@@H]1O[C@](O)([C@H](CO[C@H]2C[C@@H](OC)[C@@H](O[C@@H]3C[C@@H](OC)[C@@H](O[C@H]4C[C@H](OC)[C@H](O)[C@H](C)O4)[C@H](C)O3)[C@@H](C)O2)C(=O)NC/C=C/C=C(\C)[C@@H](OC)[C@H](C)[C@H]2C[C@H](O)[C@H](/C=C/C=C/C=C/C(=O)O)O2)[C@H](OC(=O)Cc2ccccc2)[C@H](O)C1(C)C [LL-E19020 alpha],Minimal Inhibitory Concentration,Enterococcus; strain CMC-83-72,>256 µg/mL
same,Minimal Inhibitory Concentration,Enterococcus; strain IO-83-28,>256 µg/mL
same,Minimal Inhibitory Concentration,Enterococcus; strain IO-83-40,>256 µg/mL
same,Minimal Inhibitory Concentration,Enterococcus; strain VGH-84-65,256 µg/mL
same,Minimal Inhibitory Concentration,Enterococcus; strain VGH-84-68,>256 µg/mL
same,MIC,Treponema hyodysenteriae; strain B78 (ATCC 27164),1 µg/mL
same,MIC,Treponema hyodysenteriae; strain B204 (ATCC 31212),1 µg/mL
same,Weight Gains % Improvement over Controls 0-1 Wk,[1]; 50 ppm in the diet,12.5** %
same,Weight Gains % Improvement over Controls 0-2 Wk,[1]; 50 ppm in the diet,4.1* %
same,Weight Gains % Improvement over Controls 0-3 Wk,[1]; 50 ppm in the diet,4.2* %
same,Feed/Gain 0-1 Wk,[1]; 50 ppm in the diet,1.11*
same,Feed/Gain 0-2 Wk,[1]; 50 ppm in the diet,1.30
same,Feed/Gain 0-3 Wk,[1]; 50 ppm in the diet,1.38
same,Weight Gains % Improvement over Controls 0-1 Wk,[1]; 100 ppm in the diet,8.9* %
same,Weight Gains % Improvement over Controls 0-2 Wk,[1]; 100 ppm in the diet,6.3** %
same,Weight Gains % Improvement over Controls 0-3 Wk,[1]; 100 ppm in the diet,6.1** %
same,Feed/Gain 0-1 Wk,[1]; 100 ppm in the diet,1.12*
same,Feed/Gain 0-2 Wk,[1]; 100 ppm in the diet,1.27
same,Feed/Gain 0-3 Wk,[1]; 100 ppm in the diet,1.39
same,efficiency of feed utilization (statement in words),[1]; over unmedicated controls,increased the efficiency of feed utilization
same,weight gains of chicks (statement in words),[1]; over unmedicated controls,improved the weight gains of chicks
same,Minimal Inhibitory Concentration,Peptococcus magnus; strain ATCC 14956,0.12 µg/mL
same,Minimal Inhibitory Concentration,Peptococcus magnus; strain ATCC 29328,0.12 µg/mL
same,Minimal Inhibitory Concentration,Enterobacter cloacae,>256 µg/mL
same,MIC,[2],0.125 µg/mL
same,MIC,Escherichia coli [3],≧ 256 µg/ml
same,Minimal Inhibitory Concentration,Morganella morganii,>256 µg/mL
same,Survival Ratios 7 Days After Infection,[4]; single subcutaneous dose 4 mg/kg,2/5
same,Survival Ratios 7 Days After Infection,[4]; single subcutaneous dose 8 mg/kg,4/5
same,Survival Ratios 7 Days After Infection,[4]; single subcutaneous dose 16 mg/kg,5/5
same,Survival Ratios 7 Days After Infection,[4]; single subcutaneous dose 32 mg/kg,5/5
same,Survival Ratios 7 Days After Infection,[4]; single subcutaneous dose 64 mg/kg,5/5
same,Minimal Inhibitory Concentration,Serratia marcescens,>256 µg/mL
same,Minimal Inhibitory Concentration,[5],> 256 µg/mL
same,Minimal Inhibitory Concentration,Clostridium perfringens,16 µg/mL
same,Wg Gains And Feed Efficiency % Improvement Over Controls COMBINED,[6]; 12.5 PPM in diet,3.8%
same,Wg Gains And Feed Efficiency % Improvement Over Controls FEMALES,[6]; 12.5 PPM in diet,7.8* %
same,Wg Gains And Feed Efficiency % Improvement Over Controls MALES,[6]; 12.5 PPM in diet,0%
same,Wg Gains And Feed Efficiency % Improvement Over Controls FEED/GAIN,[6]; 12.5 PPM in diet,1.36*
same,Wg Gains And Feed Efficiency % Improvement Over Controls COMBINED,[6]; 25 PPM in diet,5.5%
same,Wg Gains And Feed Efficiency % Improvement Over Controls FEMALES,[6]; 25 PPM in diet,4.8%
same,Wg Gains And Feed Efficiency % Improvement Over Controls MALES,[6]; 25 PPM in diet,5.9%
same,Wg Gains And Feed Efficiency % Improvement Over Controls FEED/GAIN,[6]; 25 PPM in diet,1.34**
same,Wg Gains And Feed Efficiency % Improvement Over Controls COMBINED,[6]; 50 PPM in diet,6.6* %
same,Wg Gains And Feed Efficiency % Improvement Over Controls FEMALES,[6]; 50 PPM in diet,10.5** %
same,Wg Gains And Feed Efficiency % Improvement Over Controls MALES,[6]; 50 PPM in diet,3.6%
same,Wg Gains And Feed Efficiency % Improvement Over Controls FEED/GAIN,[6]; 50 PPM in diet,1.34**
same,Wg Gains And Feed Efficiency % Improvement Over Controls COMBINED,[6]; 100 PPM in diet,2.9%
same,Wg Gains And Feed Efficiency % Improvement Over Controls FEMALES,[6]; 100 PPM in diet,3.2%
same,Wg Gains And Feed Efficiency % Improvement Over Controls MALES,[6]; 100 PPM in diet,2.9%
same,Wg Gains And Feed Efficiency % Improvement Over Controls FEED/GAIN,[6]; 100 PPM in diet,1.34**
same,Wg Gains And Feed Efficiency % Improvement Over Controls COMBINED,[6]; 200 PPM in diet,5.7%
same,Wg Gains And Feed Efficiency % Improvement Over Controls FEMALES,[6]; 200 PPM in diet,7.1%
same,Wg Gains And Feed Efficiency % Improvement Over Controls MALES,[6]; 200 PPM in diet,4.5%
same,Wg Gains And Feed Efficiency % Improvement Over Controls FEED/GAIN,[6]; 200 PPM in diet,1.32**
same,MIC,[7],> 256 µg/mL
same,% Worms Removed,[8]; 10 m/kg single oral dose,23%
same,% Worms Removed,"[8]; 250 ppm diet, fed day 7-11",56%
same,Minimal Inhibitory Concentration,Clostridium difficile,4 µg/mL
same,MIC,Salmonella choleraesuis,> 256 µg/mL
same,MIC,Pasteurella haemolytica,16 µg/mL
same,Minimal Inhibitory Concentration,Bacteroides fragilis,>128 µg/mL
same,Minimal Inhibitory Concentration,Pseudomonas aeruginosa,>256 µg/mL
same,Minimal Inhibitory Concentration,Streptococcus pneumoniae; strain K-84-21,1 µg/mL
same,Minimal Inhibitory Concentration,Streptococcus pneumoniae; strain SVI,1 µg/mL
same,Minimal Inhibitory Concentration,Streptococcus pneumoniae; strain VGH-84-56,1 µg/mL
same,Minimal Inhibitory Concentration,Streptococcus pneumoniae; strain VGH-84-57,2 µg/mL
same,Minimal Inhibitory Concentration,Streptococcus pneumoniae; strain VGH-84-58,0.25 µg/mL
same,Minimal Inhibitory Concentration,Streptococcus pneumoniae; strain VGH-84-59,0.25 µg/mL
same,Minimal Inhibitory Concentration,Escherichia coli [9],>256 µg/mL
same,MIC,Pasteurella multocida,8 to 16 µg/mL
